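Step 1: Grow cells in 96-well plates. Step 2: Expose to compound for 48 hours at 5 concentrations. Step 3: Interpolate endpoints linearly; if unreached, use highest concentration. TGI: total growth inhibition.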
Assays:
Assay in all cases: NCI tumour cell line growth inhibition, 48 h
HOP-62 NSCLC = test system: HOP-62 NSCLC
SNB-19 CNS = test system: SNB-19 CNS
CAKI-1 renal = test system: CAKI-1 renal
SR leukemia = test system: SR leukemia
NCI-H23 lung = test system: NCI-H23 lung
MOLT-4 leukemia = test system: MOLT-4 leukemia
SN12C renal = test system: SN12C renal
MDA-MB-435 = test system: MDA-MB-435
UACC-62 melanoma = test system: UACC-62 melanoma
ACHN renal = test system: ACHN renal
HL-60(TB) leukemia = test system: HL-60(TB) leukemia
NCI-H226 lung = test system: NCI-H226 lung
UACC-257 melanoma = test system: UACC-257 melanoma
NCI-H522 lung = test system: NCI-H522 lung
RPMI-8226 leukemia = test system: RPMI-8226 leukemia
PC-3 prostate = test system: PC-3 prostate
T-47D breast = test system: T-47D breast
BT-549 breast = test system: BT-549 breast
RXF 393 renal = test system: RXF 393 renal
LOX IMVI melanoma = test system: LOX IMVI melanoma
KM12 colon = test system: KM12 colon
HS 578T breast = test system: HS 578T breast
K-562 leukemia = test system: K-562 leukemia
DU-145 prostate = test system: DU-145 prostate
TK-10 renal = test system: TK-10 renal
HCT-15 colon = test system: HCT-15 colon
786-0 renal = test system: 786-0 renal
OVCAR-8 ovarian = test system: OVCAR-8 ovarian
UO-31 renal = test system: UO-31 renal
SK-MEL-5 melanoma = test system: SK-MEL-5 melanoma
SF-295 CNS = test system: SF-295 CNS
NCI/ADR-RES ovarian = test system: NCI/ADR-RES ovarian
SF-539 CNS = test system: SF-539 CNS
SK-MEL-2 melanoma = test system: SK-MEL-2 melanoma
HOP-92 NSCLC = test system: HOP-92 NSCLC
A549 NSCLC = test system: A549 NSCLC
EKVX NSCLC = test system: EKVX NSCLC
HT29 colon = test system: HT29 colon
OVCAR-5 ovarian = test system: OVCAR-5 ovarian
OVCAR-4 ovarian = test system: OVCAR-4 ovarian
CCRF-CEM leukemia = test system: CCRF-CEM leukemia
MALME-3M melanoma = test system: MALME-3M melanoma
MDA-N = test system: MDA-N
NCI-H460 lung = test system: NCI-H460 lung
SK-MEL-28 melanoma = test system: SK-MEL-28 melanoma
OVCAR-3 ovarian = test system: OVCAR-3 ovarian
SW-620 colon = test system: SW-620 colon
MCF7 breast = test system: MCF7 breast
SF-268 CNS = test system: SF-268 CNS
SNB-75 CNS = test system: SNB-75 CNS
U251 CNS = test system: U251 CNS
HCT-116 colon = test system: HCT-116 colon
M14 melanoma = test system: M14 melanoma
MDA-MB-231 breast = test system: MDA-MB-231 breast
SK-OV-3 ovarian = test system: SK-OV-3 ovarian
COLO 205 colon = test system: COLO 205 colon
IGROV1 ovarian = test system: IGROV1 ovarian
HCC-2998 colon = test system: HCC-2998 colon
A498 renal = test system: A498 renal

Compound: O=C1C(=Cc2cccc(Cl)c2)N=C(c2ccccc2)N1n1c(-c2ccccc2)nc2ccccc2c1=O
- TGI (HOP-62 NSCLC): 99.8 µM
- TGI (SNB-19 CNS): > 100 µM
- TGI (CAKI-1 renal): > 100 µM
- TGI (SR leukemia): > 100 µM
- TGI (NCI-H23 lung): 68.6 µM
- TGI (MOLT-4 leukemia): > 100 µM
- TGI (SN12C renal): > 100 µM
- TGI (MDA-MB-435): > 100 µM
- TGI (UACC-62 melanoma): 96.2 µM
- TGI (ACHN renal): > 100 µM
- TGI (HL-60(TB) leukemia): > 100 µM
- TGI (NCI-H226 lung): > 100 µM
- TGI (UACC-257 melanoma): > 100 µM
- TGI (NCI-H522 lung): 51.7 µM
- TGI (RPMI-8226 leukemia): > 100 µM
- TGI (PC-3 prostate): > 100 µM
- TGI (T-47D breast): > 100 µM
- TGI (BT-549 breast): > 100 µM
- TGI (RXF 393 renal): > 100 µM
- TGI (LOX IMVI melanoma): > 100 µM
- TGI (KM12 colon): > 100 µM
- TGI (HS 578T breast): > 100 µM
- TGI (K-562 leukemia): > 100 µM
- TGI (DU-145 prostate): > 100 µM
- TGI (TK-10 renal): > 100 µM
- TGI (HCT-15 colon): > 100 µM
- TGI (786-0 renal): > 100 µM
- TGI (OVCAR-8 ovarian): > 100 µM
- TGI (UO-31 renal): > 100 µM
- TGI (SK-MEL-5 melanoma): > 100 µM
- TGI (SF-295 CNS): > 100 µM
- TGI (NCI/ADR-RES ovarian): > 100 µM
- TGI (SF-539 CNS): > 100 µM
- TGI (SK-MEL-2 melanoma): > 100 µM
- TGI (HOP-92 NSCLC): 81.4 µM
- TGI (A549 NSCLC): > 100 µM
- TGI (EKVX NSCLC): > 100 µM
- TGI (HT29 colon): > 100 µM
- TGI (OVCAR-5 ovarian): > 100 µM
- TGI (OVCAR-4 ovarian): > 100 µM
- TGI (CCRF-CEM leukemia): > 100 µM
- TGI (MALME-3M melanoma): > 100 µM
- TGI (MDA-N): > 100 µM
- TGI (NCI-H460 lung): > 100 µM
- TGI (SK-MEL-28 melanoma): > 100 µM
- TGI (OVCAR-3 ovarian): > 100 µM
- TGI (SW-620 colon): > 100 µM
- TGI (MCF7 breast): > 100 µM
- TGI (SF-268 CNS): > 100 µM
- TGI (SNB-75 CNS): > 100 µM
- TGI (U251 CNS): > 100 µM
- TGI (HCT-116 colon): > 100 µM
- TGI (M14 melanoma): 54.5 µM
- TGI (MDA-MB-231 breast): > 100 µM
- TGI (SK-OV-3 ovarian): > 100 µM
- TGI (COLO 205 colon): > 100 µM
- TGI (IGROV1 ovarian): > 100 µM
- TGI (HCC-2998 colon): > 100 µM

Compound: COc1cc(/C=C2/CCCc3ccccc3C2=O)cc(OC)c1OC
- TGI (HOP-62 NSCLC): > 58.9 µM
- TGI (SNB-19 CNS): > 100 µM
- TGI (CAKI-1 renal): > 59.5 µM
- TGI (SR leukemia): > 39.2 µM
- TGI (NCI-H23 lung): > 87 µM
- TGI (MOLT-4 leukemia): > 35 µM
- TGI (SN12C renal): > 51.4 µM
- TGI (MDA-MB-435): > 70.6 µM
- TGI (UACC-62 melanoma): > 67.4 µM
- TGI (ACHN renal): > 100 µM
- TGI (HL-60(TB) leukemia): > 100 µM
- TGI (NCI-H226 lung): > 79.8 µM
- TGI (UACC-257 melanoma): > 56.1 µM
- TGI (NCI-H522 lung): 41 µM
- TGI (RPMI-8226 leukemia): > 78.9 µM
- TGI (PC-3 prostate): > 59.3 µM
- TGI (T-47D breast): > 100 µM
- TGI (BT-549 breast): > 78.5 µM
- TGI (RXF 393 renal): > 100 µM
- TGI (LOX IMVI melanoma): > 77 µM
- TGI (KM12 colon): > 50.1 µM
- TGI (HS 578T breast): > 84.2 µM
- TGI (K-562 leukemia): > 23.8 µM
- TGI (DU-145 prostate): > 58.3 µM
- TGI (TK-10 renal): > 100 µM
- TGI (HCT-15 colon): > 100 µM
- TGI (786-0 renal): > 62 µM
- TGI (OVCAR-8 ovarian): > 69.8 µM
- TGI (UO-31 renal): > 60.2 µM
- TGI (SK-MEL-5 melanoma): 13.6 µM
- TGI (SF-295 CNS): > 57.6 µM
- TGI (NCI/ADR-RES ovarian): > 100 µM
- TGI (SF-539 CNS): > 64.7 µM
- TGI (SK-MEL-2 melanoma): > 55 µM
- TGI (HOP-92 NSCLC): > 82.2 µM
- TGI (A549 NSCLC): > 100 µM
- TGI (EKVX NSCLC): > 92.2 µM
- TGI (HT29 colon): > 100 µM
- TGI (OVCAR-5 ovarian): > 100 µM
- TGI (OVCAR-4 ovarian): > 100 µM
- TGI (CCRF-CEM leukemia): > 100 µM
- TGI (MALME-3M melanoma): 29.5 µM
- TGI (MDA-N): > 43.8 µM
- TGI (NCI-H460 lung): > 100 µM
- TGI (A498 renal): > 75 µM
- TGI (SK-MEL-28 melanoma): > 100 µM
- TGI (OVCAR-3 ovarian): > 55.6 µM
- TGI (SW-620 colon): > 100 µM
- TGI (MCF7 breast): > 63.9 µM
- TGI (SF-268 CNS): > 52.3 µM
- TGI (SNB-75 CNS): > 49.9 µM
- TGI (U251 CNS): > 88.4 µM
- TGI (HCT-116 colon): > 49.9 µM
- TGI (M14 melanoma): > 67.4 µM
- TGI (MDA-MB-231 breast): > 51.4 µM
- TGI (SK-OV-3 ovarian): > 68.1 µM
- TGI (COLO 205 colon): > 60.8 µM
- TGI (IGROV1 ovarian): > 100 µM
- TGI (HCC-2998 colon): > 74 µM

— PubChem BioAssay (NCI)
